According to patent US5118681A (priority 1989, dated 1992):
≈ marks a conversion by molar mass, not a printed value.

Legend:
[1] = test system: Pseudoperonospora cubensis; experiment: whole plant or invertebrate; format: in vivo; settings: Pseudoperonospora cubensis, in Cucumis sativus, 168 h; read-out: % control CDM
[2] = test system: E.c; experiment: Minimum Inhibitory Concentration Test, alternate (Table 4), E.c; format: cell-based, Escherichia coli; settings: Escherichia coli, TSB, 72 hours
Experimental: (§1) A 125 μl aliquot of 10,000 ppm test compound in acetone was added to 4.88 ml of TSB to provide a 250 ppm solution. From this solution, 100 μL was transferred to the first row of two microtiter plate columns. Both replicates and five additional compounds were all serially diluted 1:1 to a final concentration of 0.8 ppm in TSB.
(§2) Inoculation was accomplished by diluting a 24 hr Ps fl culture, four mls per 36 mls of phosphate buffer solution. A Dynatech autoinoculator was used to transfer 1.5 μl of this cell suspension to the microtiter plates. The plates were incubated at 30° C. for 3 days before the lowest concentration at which no growth occurs was recorded in the database. The SOK data and MIC test data on Ps.fl, Ps.ae, E.c, and S.a. bacteria and Candida albicans (C.alb), A.n and A.p fungi are listed in Table 4.

[3] = test system: A.n; experiment: Minimum Inhibitory Concentration Test, alternate (Table 4), A.n; format: cell-based, Aspergillus niger; settings: Aspergillus niger, TSB, 72 hours
Experimental: as §1, §2

[4] = test system: Erysiphe graminis (f. sp. tritici); experiment: whole plant or invertebrate; format: in vivo; settings: Blumeria graminis; read-out: % control WPM
[5] = test system: Phytophthora infestans; experiment: whole plant or invertebrate; format: in vivo; settings: Phytophthora infestans, in Solanum lycopersicum, 96 h, read-out: % control TLB
[6] = test system: S.a; experiment: Minimum Inhibitory Concentration Test, alternate (Table 4), S.a; format: cell-based, Staphylococcus aureus; settings: Staphylococcus aureus, TSB, 72 hours
Experimental: as §1, §2

[7] = test system: Puccinia recondita (f. sp. tritici Races PKB and PLD); experiment: whole plant or invertebrate; format: in vivo; settings: Puccinia recondita, 240 h; read-out: % control WLR
[8] = test system: Pellicularia filamentosa (f. sp. sasiki); experiment: whole plant or invertebrate; format: in vivo; settings: 120 h; read-out: % control RSB
[9] = test system: Piricularia oryzae; experiment: whole plant or invertebrate; format: in vivo; settings: Pyricularia oryzae, read-out: % control RB
[10] = test system: Candida albicans (C.alb); experiment: Minimum Inhibitory Concentration Test, alternate (Table 4), C.alb; format: cell-based; settings: Candida albicans, TSB, 72 hours
Experimental: as §1, §2

[11] = test system: Pseudomonas fluorescens; experiment: Minimum Inhibitory Concentration Test, alternate (Table 4), Ps.fl; format: cell-based; settings: Pseudomonas fluorescens, TSB, 72 hours, 30° C
Experimental: as §1, §2

[12] = test system: A.p; experiment: Minimum Inhibitory Concentration Test, alternate (Table 4), A.p; format: cell-based; settings: Aureobasidium pullulans, TSB, 72 hours
Experimental: as §1, §2

[13] = test system: Ps.ae; experiment: Minimum Inhibitory Concentration Test, alternate (Table 4), Ps.ae; format: cell-based, Pseudomonas aerugenosa; settings: Pseudomonas, TSB, 72 hours

SMILES	pest or weed control at 200 ppm [1] [%]	MIC [2] [µg/mL]	MIC [3] [µg/mL]	pest or weed control at 200 ppm [4] [%]	pest or weed control at 200 ppm [5] [%]	MIC [6] [µg/mL]	pest or weed control at 200 ppm [7] [%]	pest or weed control at 200 ppm [8] [%]	pest or weed control at 200 ppm [9] [%]	MIC [10] [µg/mL]	MIC [11] [µg/mL]	MIC [12] [µg/mL]	MIC [13] [µg/mL]	pest or weed control at 100 ppm [5] [%]	pest or weed control at 100 ppm [1] [%]	pest or weed control at 100 ppm [4] [%]	pest or weed control at 100 ppm [7] [%]	pest or weed control at 100 ppm [8] [%]	pest or weed control at 100 ppm [9] [%]	pest or weed control at 25 ppm [7] [%]
CCCCCCCCNC(=O)/C=C\SC(C(C)=O)C(=O)OCC (stereo not drawn) [Example 11, N-n-octyl-cis-3-[2-(ethoxy-3-oxobutanoyl)thio]acrylamide]	85	> 500	4 to 8 (≈ 11.6 to 23.3 µM)	50	0	> 500	50	0	0	< 4	250 to 500 (≈ 728 to 1460 µM)	< 4	> 500							
CCCCCCCCNC(=O)/C=C\SC(C(C)=O)C(=O)NCc1ccccc1 (stereo not drawn) [Example 12, N-n-octyl-cis-3-[2-(N-benzylacetoacetamideo)thio]acrylamide]	100	> 500	4 to 16 (≈ 9.89 to 39.5 µM)	75		> 500	75	25	75	16 (≈ 39.5 µM)	125 to 500 (≈ 309 to 1240 µM)	8 (≈ 19.8 µM)	> 500	100						
CCCCCCCCNC(=O)/C=C\SC(C(C)=O)C(=O)C1CC1 (stereo not drawn) [Example 29, N-n-octyl-cis-3-[2-(1-cyclopropyl-1,3-butanedionyl)thio]acrylamide]	95	> 500	8 to 31 (≈ 23.6 to 91.3 µM)	0	85	> 500	0	0	77	31 (≈ 91.3 µM)	> 500	125 (≈ 368 µM)	> 500							
CCCCCCCCNC(=O)/C=C\SC(C(C)=O)C(=O)Nc1ccccc1OC (stereo not drawn) [Example 30, N-n-octyl-cis-3-{2-[N-(2-methoxyphenyl)acetoacetamido]thio}acrylamide]	100	> 500	31 to 63 (≈ 73.7 to 150 µM)	0	80	> 500	0	0	90	8 (≈ 19 µM)	> 500	250 (≈ 594 µM)	500 (≈ 1190 µM)							
CCCCCCCCNC(=O)/C=C\SC(C(=O)Nc1cccc(Cl)c1Cl)C(=O)OCC (stereo not drawn) [Example 35, N-n-octyl-cis-3-{2-[ethyl-N-(2,3-dichlorophenyl)malonamido]thio}acrylamide]		> 250	8 to 16 (≈ 16.3 to 32.7 µM)			> 250				4 (≈ 8.17 µM)	500 (≈ 1020 µM)	< 2	> 250	95	99	0	50	0	0	
CCCCCCCCNC(=O)/C=C\SC(C(=O)NC1CC1)C(=O)OCC (stereo not drawn) [Example 36, N-n-octyl-cis-3-[2-(ethyl-N-cyclopropylmalonamido)thio]acrylamide]		> 250	8 to 16 (≈ 20.8 to 41.6 µM)			125 (≈ 325 µM)				31 (≈ 80.6 µM)	500 (≈ 1300 µM)	< 2	> 250	47	100	0	50	0	90	
C=CCNC(=O)C(S/C=C\C(=O)NCCCCCCCC)C(=O)OCC (stereo not drawn) [Example 37, N-n-octyl-cis-3-{2-[ethyl-N-(2-propenyl)malonamido]thio}acrylamide]		> 250	4 to 8 (≈ 10.4 to 20.8 µM)			31 (≈ 80.6 µM)				8 (≈ 20.8 µM)	500 (≈ 1300 µM)	< 2	> 250	95	100	50	75	0	95	
CCCCCCCCNC(=O)/C=C\SC(C(=O)Nc1ccc(Cl)cc1Cl)C(=O)OCC (stereo not drawn) [Example 41, N-n-octyl-cis-3-{2-[ethyl-N-(2,4-dichlorophenyl)malonamido]thio}acrylamide]		> 500	8 to 31 (≈ 16.3 to 63.3 µM)			> 500				63 (≈ 129 µM)	> 500	8 (≈ 16.3 µM)	> 500	87	100	50	0	0	99	
CCCCCCCCNC(=O)/C=C\SC(C(=O)Nc1cc([N+](=O)[O-])ccc1Cl)C(=O)OCC (stereo not drawn) [Example 45, N-n-octyl-cis-3-{2-[ethyl-N-(2-chloro-5-nitrophenyl)malonamido]thio}acrylamide]		> 250	4 to 8 (≈ 8 to 16 µM)			63 (≈ 126 µM)				4 (≈ 8 µM)	> 250	< 2	> 250	0		0		0	0	50
CCCCCCCCNC(=O)/C=C\SC(C(C)=O)C(=O)Nc1ccc(OC)cc1 (stereo not drawn) [Example 47, N-n-octyl-cis-3-{2-[N-(4-methoxyphenyl)acetoacetamido]thio}acrylamide]		> 250	4 to 16 (≈ 9.51 to 38 µM)			31 (≈ 73.7 µM)				4 (≈ 9.51 µM)	> 250	< 2	> 250	80	100	0	0	0	0	
CCCCCCCCNC(=O)/C=C\SC(C(=O)Nc1ccc(Cl)c([N+](=O)[O-])c1)C(=O)OCC (stereo not drawn) [Example 48, N-n-octyl-cis-3-{2-[ethyl-N-(3-nitro-4-chlorophenyl)malonamido]thio}acrylamide]		> 250	4 to 31 (≈ 8 to 62 µM)			> 250				31 (≈ 62 µM)	> 250	< 2	> 250	99	99	0	50	0	0	
CCCCCCCCNC(=O)/C=C\SC(C(=O)Nc1ccc(OC)c(Cl)c1)C(=O)OCC (stereo not drawn) [Example 50, N-n-octyl-cis-3-{2-[ethyl-N-(3-chloro-4-methoxyphenyl)malonamido]thio}acrylamide]		> 250				> 250				63 to 250 (≈ 130 to 515 µM)	> 250	< 2	> 250	0	85	0	50	0	0	
CCCCCCCCNC(=O)/C=C\SC(C(=O)NCCCN1CCOCC1)C(=O)OCC (stereo not drawn) [Example 51, N-n-octyl-cis-3-{2-[ethyl-N-(3-(4-morpholino)propyl)malonamido]thio}acrylamide]		> 250	< 2			31 (≈ 65.7 µM)				< 2	> 250	< 2	> 250	0	99	0	0	0	0	
CCCCCCCCNC(=O)/C=C\SC(C(=O)NN1CCOCC1)C(=O)OCC (stereo not drawn) [Example 63, N-n-octyl-cis-3-{2-[ethyl-N-(4-morpholino)malonamido]thio}acrylamide]		250 (≈ 582 µM)	2 to 16 (≈ 4.66 to 37.2 µM)			31 (≈ 72.2 µM)				< 2	> 250	< 2	> 250	0	99	0	0	0	0	
